Measurements from the NIST ThermoML archive (doi:10.1021/acs.jced.6b00350).
“And” between values parts separate entries of the source, which are not always exact repeats. Equal entries are not always repeated.

Settings: Liquid, Hot wire method

FC(F)CC(F)(F)F [1,1,1,3,3-pentafluoropropane]
Settings	thermal conductivity
173.21 K, 150 kPa	0.1235 W/m/K and 0.1232 W/m/K
173.3 K, 132 kPa	0.1239 W/m/K
173.3 K, 133 kPa	0.1234 W/m/K
173.3 K, 148 kPa	0.1237 W/m/K and 0.1231 W/m/K
173.41 K, 150 kPa	0.1234 W/m/K
173.51 K, 135 kPa	0.1234 W/m/K and 0.1231 W/m/K
173.51 K, 148 kPa	0.1235 W/m/K and 0.1238 W/m/K
173.66 K, 150 kPa	0.1231 W/m/K
173.75 K, 136 kPa	0.1237 W/m/K
173.75 K, 137 kPa	0.1236 W/m/K
173.75 K, 148 kPa	0.1236 W/m/K
173.91 K, 150 kPa	0.1233 W/m/K and 0.1231 W/m/K
174.01 K, 138 kPa	0.1235 W/m/K
174.01 K, 140 kPa	0.1235 W/m/K
174.01 K, 148 kPa	0.1235 W/m/K
174.01 K, 149 kPa	0.1235 W/m/K
174.21 K, 150 kPa	0.1234 W/m/K
174.29 K, 140 kPa	0.1233 W/m/K
174.29 K, 141 kPa	0.1231 W/m/K
174.3 K, 149 kPa	0.1239 W/m/K and 0.1236 W/m/K
181.78 K, 159 kPa	0.1224 W/m/K and 0.1223 W/m/K
182.06 K, 158 kPa	0.1227 W/m/K and 0.1222 W/m/K
182.37 K, 158 kPa	0.1222 W/m/K and 0.1225 W/m/K
182.5 K, 266 kPa	0.1225 W/m/K
182.5 K, 269 kPa	0.1226 W/m/K
182.51 K, 5857 kPa	0.1236 W/m/K
182.51 K, 70521 kPa	0.1336 W/m/K
182.52 K, 5874 kPa	0.1237 W/m/K
182.52 K, 12298 kPa	0.1248 W/m/K
182.52 K, 12334 kPa	0.1252 W/m/K
182.53 K, 18829 kPa	0.126 W/m/K
182.53 K, 18849 kPa	0.126 W/m/K
182.53 K, 32455 kPa	0.1283 W/m/K
182.54 K, 25387 kPa	0.1271 W/m/K
182.54 K, 25434 kPa	0.1275 W/m/K
182.54 K, 63262 kPa	0.1331 W/m/K and 0.133 W/m/K
182.55 K, 32519 kPa	0.128 W/m/K
182.6 K, 54974 kPa	0.1317 W/m/K
182.6 K, 54979 kPa	0.1314 W/m/K
182.64 K, 47632 kPa	0.1303 W/m/K
182.64 K, 47638 kPa	0.1309 W/m/K
182.68 K, 39974 kPa	0.1293 W/m/K
182.68 K, 39979 kPa	0.1294 W/m/K
182.7 K, 158 kPa	0.1222 W/m/K
182.71 K, 158 kPa	0.1222 W/m/K
182.81 K, 266 kPa	0.1225 W/m/K
182.81 K, 278 kPa	0.1224 W/m/K
182.81 K, 5870 kPa	0.1236 W/m/K
182.81 K, 5874 kPa	0.1234 W/m/K
182.81 K, 70507 kPa	0.134 W/m/K
182.81 K, 70514 kPa	0.134 W/m/K
182.82 K, 12333 kPa	0.1247 W/m/K
182.83 K, 18827 kPa	0.1259 W/m/K
182.83 K, 18835 kPa	0.1259 W/m/K
182.83 K, 25436 kPa	0.1272 W/m/K
182.84 K, 25420 kPa	0.127 W/m/K
182.84 K, 32528 kPa	0.1281 W/m/K
182.84 K, 32589 kPa	0.128 W/m/K
182.85 K, 63255 kPa	0.1331 W/m/K
182.91 K, 54970 kPa	0.1314 W/m/K
182.92 K, 54983 kPa	0.1316 W/m/K
182.95 K, 47626 kPa	0.1304 W/m/K
182.95 K, 47631 kPa	0.1305 W/m/K
182.99 K, 39966 kPa	0.129 W/m/K
182.99 K, 39976 kPa	0.1291 W/m/K
183.06 K, 158 kPa	0.1223 W/m/K and 0.1222 W/m/K
183.13 K, 269 kPa	0.1224 W/m/K
183.14 K, 277 kPa	0.1224 W/m/K
183.14 K, 5876 kPa	0.1234 W/m/K
183.14 K, 5877 kPa	0.1234 W/m/K
183.14 K, 70492 kPa	0.1338 W/m/K
183.14 K, 70493 kPa	0.134 W/m/K
183.15 K, 12341 kPa	0.1246 W/m/K
183.15 K, 18865 kPa	0.1257 W/m/K
183.15 K, 25402 kPa	0.1266 W/m/K
183.16 K, 12323 kPa	0.1246 W/m/K
183.16 K, 18832 kPa	0.1258 W/m/K
183.16 K, 25441 kPa	0.1268 W/m/K
183.16 K, 32517 kPa	0.1281 W/m/K
183.17 K, 32553 kPa	0.1282 W/m/K
183.18 K, 63248 kPa	0.1329 W/m/K
183.19 K, 63254 kPa	0.133 W/m/K
183.25 K, 54977 kPa	0.1312 W/m/K
183.25 K, 54980 kPa	0.1317 W/m/K
183.29 K, 47629 kPa	0.13 W/m/K
183.3 K, 47628 kPa	0.1305 W/m/K
183.34 K, 39964 kPa	0.1291 W/m/K
183.34 K, 39965 kPa	0.1291 W/m/K
183.5 K, 279 kPa	0.1222 W/m/K
183.5 K, 290 kPa	0.1225 W/m/K
183.5 K, 5883 kPa	0.1234 W/m/K
183.5 K, 12421 kPa	0.1245 W/m/K
183.5 K, 70475 kPa	0.1338 W/m/K
183.5 K, 70484 kPa	0.1336 W/m/K
183.51 K, 5882 kPa	0.1233 W/m/K
183.51 K, 12360 kPa	0.1246 W/m/K
183.51 K, 18836 kPa	0.1258 W/m/K
183.51 K, 18859 kPa	0.1258 W/m/K
183.51 K, 25404 kPa	0.1269 W/m/K
183.51 K, 25455 kPa	0.1269 W/m/K
183.51 K, 32519 kPa	0.1282 W/m/K
183.51 K, 32578 kPa	0.1281 W/m/K
183.54 K, 63251 kPa	0.133 W/m/K
183.55 K, 63252 kPa	0.1329 W/m/K
183.62 K, 54975 kPa	0.1314 W/m/K
183.66 K, 47626 kPa	0.1304 W/m/K
183.67 K, 47632 kPa	0.1303 W/m/K
183.71 K, 39948 kPa	0.129 W/m/K
183.71 K, 39959 kPa	0.1291 W/m/K
183.88 K, 5875 kPa	0.1233 W/m/K
183.88 K, 18828 kPa	0.1257 W/m/K
183.88 K, 18858 kPa	0.1257 W/m/K
183.88 K, 25416 kPa	0.1267 W/m/K
183.88 K, 32497 kPa	0.1281 W/m/K
183.88 K, 70464 kPa	0.1338 W/m/K
183.89 K, 5878 kPa	0.1233 W/m/K
183.89 K, 12374 kPa	0.1246 W/m/K
183.89 K, 12395 kPa	0.1244 W/m/K
183.89 K, 25431 kPa	0.1268 W/m/K
183.89 K, 32541 kPa	0.1281 W/m/K
183.89 K, 70475 kPa	0.1341 W/m/K
183.9 K, 282 kPa	0.1223 W/m/K
183.9 K, 287 kPa	0.1222 W/m/K
183.93 K, 63243 kPa	0.1325 W/m/K
183.93 K, 63247 kPa	0.1328 W/m/K
184.01 K, 54967 kPa	0.1313 W/m/K
184.01 K, 54970 kPa	0.1314 W/m/K
184.06 K, 47633 kPa	0.1303 W/m/K
184.06 K, 47634 kPa	0.13 W/m/K
184.1 K, 39951 kPa	0.129 W/m/K
184.1 K, 39957 kPa	0.129 W/m/K
201.76 K, 4752 kPa	0.1207 W/m/K
201.76 K, 4760 kPa	0.1207 W/m/K
201.78 K, 10055 kPa	0.1218 W/m/K
201.78 K, 10078 kPa	0.1219 W/m/K
201.81 K, 15810 kPa	0.1231 W/m/K
201.85 K, 253 kPa	0.1197 W/m/K
201.86 K, 245 kPa	0.1197 W/m/K
